Legend:
IL-2 = IL-2 assay: supernatants of Con A stimulated lymphocytes of treated mice, proliferation of indicator cells; type: in vivo; conditions: mice treated with 100 mg/kg, Con A for 2 days; for IL-2 ASSAY CPM, % Supernatants Tested 5: 5 % supernatant; for IL-2 ASSAY CPM, % Supernatants Tested 10: 10 % supernatant; for IL-2 ASSAY CPM, % Supernatants Tested 20: 20 % supernatant
Procedure: Spleens were removed from mice and single-cell suspensions were prepared by teasing the spleens apart and rinsing through No. 40 and No. 80 stainless steel mesh screens. Erythrocytes were lysed by a 3- minute exposure to a 0.83% Tris-ammonium chloride solution. Cells were washed 3 times with HBSS and finally suspended in complete RPMI 1640 culture medium consisting of 5% FCS, 2mM L-glutamine, 5 x 10^-5M 2-mercaptoethanol, 10mM HEPES, 100 U/ml of penicillin, and 100 µg/ml of streptomycin. Cells were counted in a hemocytometer and the viability of test cells was always greater than 98% as judged by trypan blue dye exclusion.
IL-2 was made by stimulating 10^7 B6 splenocytes with 1 µg Con A in 1 ml medium. Supernatants were harvested 2 days later and residual Con A was removed by Sephadex G-50 absorption or a-methyl mannoside inactivation. IL-2 activity was tested in the thymocyte proliferation assay described above. Additionally, test samples were added to cultures of lymphoblasts prepared by a three-day Con A stimulation or to IL-2 dependent CT11-2 cells. The proliferation of these indicator cells was measured 24 hours later by ^3HTdR incorporation.
Lymphocytes prepared from normal mice or mice treated with 100 mg/kg of test compound were stimulated with Con A for 2 days. Culture supernatants were harvested and tested for putative IL-2 activity in 3 proliferation assays using thymocytes, lymphoblasts and CTLL-2 cells as indicators. Although supernatants from normal lymphocytes supported the growth of all indicator cells, lymphocytes from treated animals apparently produced more IL-2 as indicated by a greater degree of cell proliferation in all three test systems.

IL-1 = IL-1 assay: supernatants of peritoneal exudate cells of orally treated mice, tested on thymocytes; type: in vivo, C57BI/6 mice; conditions: oral dose 25, 100 or 200 mg/Kg (not stated which), PEC collected four days later, 3H-TdR in thymocytes; for IL-1 ASSAY + LPS: with Lipopolysaccharide (10 μg/ml); for IL-1 ASSAY - LPS: without Lipopolysaccharide
Procedure: Groups of C57BI/6 mice were treated orally with immunomodulator at doses of 25, 100 or 200 mg/Kg. Four days later peritoneal exudate cells (PEC) were collected and 1 x 10^5 cells were plated in RPMI-1640 medium containing 5% fetal calf serum (FCS). After 2 hours incubation at 37°C the non-adherent cells were washed off and the adherent cells were incubated for 24 hours in RPMI medium with 5% FCS with or without Lipopolysaccharide (10 u.g/ml). The following day the supernatants were collected and assayed for IL-1 on thymocytes. The cultures were incubated for 3 days and then pulsed with ^3H-TdR using 0.5 µCi/well. The cells were harvested and the number of counts per minute (CPM) was determined using a Beckman scintillation counter.

[1] = test system: colony stimulating factor (CSF); assay: Colony stimulating factor production: mouse sera tested on normal bone marrow cells; type: in vivo, mice; conditions: 10% test serum on normal marrow cells, 3 days, 3HTdR; for Production of Colony Stimulating Factor, CPM Test No. 2: control 3,118; for Production of Colony Stimulating Factor, CPM Test No. 1: control 548
Procedure: Mouse femurs were removed and the marrow cells collected by aspiration through a 23 gauge needle and dispensed into 5 ml of RPMI 1640 culture medium. Aliquots were diluted with a 2% solution of acetic acid containing 0.2% crystal violet and the number of nucleated cells per femur was determined by direct count in a hemocytometer.
Mouse sera were assayed for colony stimulating factor (CSF) in cultures of normal bone marrow cells. CSF was tested in a system in which 5 x 10" normal marrow cells were incubated with 10% test samples in each well of 96-well culture plates for 3 days. Proliferation of these cells was determined by ^3HTdR incorporation.

SRBC = assay: Anti-SRBC antibody assay (antibody forming cells, plaques); type: in vivo, mice; conditions: oral, day 0, 200 or 600 mg/kg, SRBC IP day +4; for Production of Anti-SRBC Antibody, CPM Test No. 1: control 1,260; for Production of Anti-SRBC Antibody, CPM Test No. 2: control 830
Procedure: Compounds were given orally on day 0 at doses of 200 or 600 mg/kg. 0.1 ml of a 10% suspension of sheep RBC (Red Blood Cell) was given IP on day +4. Ten days later splenocytes were obtained from these mice and either 4 x 10^6 ot 2 x 10^6 splenocytes in 50 µl were mixed with 50 µl of a 15% suspension of SRBC containing guinea pig complement (1:4 dilution). 100 ul of this mixture was placed onto a slide culture and incubated for 30 to 45 minutes at 37°C. The number of antibody forming cells was determined by counting the number of visible plaques formed.

P815 tumor cells = assay: Macrophage mediated tumor cytostasis (activation of tumoricidal macrophages in compound-treated mice); type: in vivo; conditions: macrophages from compound-treated mice vs normal control macrophages; 3HTdR incorporation into P815 cells; single oral dose, day 4
Excerpt: The test compounds apparently were able to activate these cells in vivo to inhibit the growth of tumor cells in cultures. These "activated" macrophages were detectable in peritoneal exudates of treated mice on day 4 after receiving a single oral dose of the test compound. (Table I). […] (Tables II and III). […] (Table V). Mice treated with the test compounds also respond better to foreign antigens such as sheep red blood cells (SRBC) as shown by their ability to produce higher levels of antibody to this foreign protein. (Table IV). […]
P815 tumor cells obtained from D2 mice were washed twice with HBSS and suspended in 10% FCS- complete medium. Five x 10^3 P815 cells were added to culture wells containing B6 macrophages and the E:T ratios were determined by the numbers of PE cells added initially to each well. […] The amount of ^3HTdR incorporated into target cells was determined in a liquid scintillation counter. The mean cpm were obtained from triplicate cultures with results being presented as percent cytostasis calculated by the fol lowing formula: % cytostasis = (A-B)/A x 100 where A = cpm of cultures containing normal control macrophages; and B = cpm of cultures containing experimental macrophages obtained from compound-treated mice.

Structure (SMILES) | IL-2 ASSAY CPM, % Supernatants Tested 5 (IL-2) | IL-2 ASSAY CPM, % Supernatants Tested 10 (IL-2) | IL-2 ASSAY CPM, % Supernatants Tested 20 (IL-2) | IL-1 ASSAY + LPS (IL-1) | IL-1 ASSAY - LPS (IL-1) | Production of Colony Stimulating Factor, CPM Test No. 2 [1] | Production of Anti-SRBC Antibody, CPM Test No. 1 (SRBC) | % Cytostasis (P815 tumor cells) | Production of Colony Stimulating Factor, CPM Test No. 1 [1] | Production of Anti-SRBC Antibody, CPM Test No. 2 (SRBC)
CCC(=Nc1ccc2c(c1)S(=O)(=O)c1cc(N=C(CC)N(C)C)ccc1-2)N(C)C [N , N"-3,7-Dibenzothiophenediylbis[N,N-dimethylpropanimidamide] S,S-dioxide] | 3,238 CPM | 9,050 CPM | 14,568 CPM | 56,015 CPM | 31,260 CPM | 6,650 CPM | 1,437 CPM | – | – | –
CCC(=Nc1ccc2c(c1)S(=O)(=O)c1cc(F)ccc1-2)N(C)C [N'-(7-Fluoro-3-dibenzothienyl)N,N-dimethylpropanimidamide S,S-dioxide] | – | – | – | – | – | – | – | 77.4% | 1,353 CPM | 1,474 CPM
CCC(=Nc1ccc2c(c1)-c1cc(N=C(CC)N(C)C)ccc1S2(=O)=O)N(C)C [N,N'"-2,8-Dibenzothiophenediyibis[N,N-dimethyipropanimidamide] S,S-dioxide] | 2,766 CPM | 6,457 CPM | 11,288 CPM | 44,983 CPM | 52,160 CPM | 6,513 CPM | 1,029 CPM | – | – | –
CC(=O)Nc1ccc2c(c1)S(=O)(=O)c1cc(F)ccc1-2 [N-(7-Fluoro-3-dibenzothienyl)acetamide S,S-dioxide] | 2,849 CPM | 5,653 CPM | 10,982 CPM | 36,320 CPM | 50,677 CPM | – | – | 13.9% | 976 CPM | 1,469 CPM
